Assay results from patent US10906915B2, “Substituted pyrazoloazepin-4-ones and their use as phosphodiesterase inhibitors” (LEO Pharma A/S, priority 2016, dated 2021).

The molecules below were run against human PDE4D catalytic domain (UniProt no. Q08499) (Homo sapiens (Human), UniProt Q08499) (assay: PDE4 assay (TR-FRET, FAM-cAMP cleavage)). Details: read-out: PDE4 IC50 range.
Assay type: biochemical
In short: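 PDE4D catalytic domain ([…]) was incubated with unlabelled cAMP plus FAM-cAMP and titrated compound, stopped with binding buffer of metal-ion nanoparticles and Tb donor. AMP generation read by TR-FRET; IC50 as 50% inhibition of cleavage versus controls, reported as nM ranges.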

Chain of human PDE4D catalytic domain (Q08499 380-740 limits assumed): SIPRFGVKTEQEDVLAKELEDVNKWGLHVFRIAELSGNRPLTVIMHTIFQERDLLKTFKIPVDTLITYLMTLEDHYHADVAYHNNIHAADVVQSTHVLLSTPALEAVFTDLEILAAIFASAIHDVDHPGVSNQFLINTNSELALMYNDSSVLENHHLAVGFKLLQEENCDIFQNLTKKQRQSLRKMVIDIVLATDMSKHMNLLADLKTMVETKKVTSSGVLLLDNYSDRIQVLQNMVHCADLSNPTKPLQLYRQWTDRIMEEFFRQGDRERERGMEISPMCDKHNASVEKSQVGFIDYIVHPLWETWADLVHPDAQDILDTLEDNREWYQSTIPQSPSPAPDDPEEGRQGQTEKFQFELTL

SMILES	IC50
CCc1nn(CCCCOC(=O)c2ccccc2)c2c1C(=O)NCC1(CCOCC1)C2 [Example 363, 4-(3-ethyl-4-oxo-spiro[6,8-dihydro-5H-pyrazolo[4,3-c]azepine-7,4′-tetrahydropyran]-1-yl)butyl benzoate]	< 100 nM
CCc1nn(CCCCOC(=O)c2cccc(C)c2)c2c1C(=O)NCC1(CCOCC1)C2 [Example 364, 4-(3-ethyl-4-oxo-spiro[6,8-dihydro-5H-pyrazolo[4,3-c]azepine-7,4′-tetrahydropyran]-1-yl)butyl 3-methylbenzoate]	< 100 nM
CCc1nn(CCCCOC(=O)c2ccc(C)cc2)c2c1C(=O)NCC1(CCOCC1)C2 [Example 365, 4-(3-ethyl-4-oxo-spiro[6,8-dihydro-5H-pyrazolo[4,3-c]azepine-7,4′-tetrahydropyran]-1-yl)butyl 4-methylbenzoate]	< 100 nM
CCc1nn(CCCCOC(=O)c2ccc(F)cc2)c2c1C(=O)NCC1(CCOCC1)C2 [Example 366, 4-(3-ethyl-4-oxo-spiro[6,8-dihydro-5H-pyrazolo[4,3-c]azepine-7,4′-tetrahydropyran]-1-yl)butyl 4-fluorobenzoate]	< 100 nM
CCc1nn(CCCCOC(=O)c2ccc(C(C)=O)cc2)c2c1C(=O)NCC1(CCOCC1)C2 [Example 368, 4-(3-ethyl-4-oxo-spiro[6,8-dihydro-5H-pyrazolo[4,3-c]azepine-7,4′-tetrahydropyran]-1-yl)butyl 4-acetylbenzoate]	100 to 500 nM
CCc1nn(CCCCOC(=O)c2cccc(S(C)(=O)=O)c2)c2c1C(=O)NCC1(CCOCC1)C2 [Example 369, 4-(3-ethyl-4-oxo-spiro[6,8-dihydro-5H-pyrazolo[4,3-c]azepine-7,4′-tetrahydropyran]-1-yl)butyl 3-methylsulfonylbenzoate]	100 to 500 nM
CCc1nn(CCCCOC(=O)c2ccc(S(C)(=O)=O)cc2)c2c1C(=O)NCC1(CCOCC1)C2 [Example 370, 4-(3-ethyl-4-oxo-spiro[6,8-dihydro-5H-pyrazolo[4,3-c]azepine-7,4′-tetrahydropyran]-1-yl)butyl 4-methylsulfonylbenzoate]	100 to 500 nM
CCc1nn(CCCCOC(=O)c2ccc(S(=O)(=O)CC)cc2)c2c1C(=O)NCC1(CCOCC1)C2 [Example 371, 4-(3-ethyl-4-oxo-spiro[6,8-dihydro-5H-pyrazolo[4,3-c]azepine-7,4′-tetrahydropyran]-1-yl)butyl 4-ethylsulfonylbenzoate]	100 to 500 nM
CCc1nn(CCCCOC(=O)c2cccc(S(=O)(=O)NC)c2)c2c1C(=O)NCC1(CCOCC1)C2 [Example 372, 4-(3-ethyl-4-oxo-spiro[6,8-dihydro-5H-pyrazolo[4,3-c]azepine-7,4′-tetrahydropyran]-1-yl)butyl 3-(methylsulfamoyl)benzoate]	< 100 nM
CCc1nn(CCCCOC(=O)c2ccc(S(=O)(=O)NC)cc2)c2c1C(=O)NCC1(CCOCC1)C2 [Example 373, 4-(3-ethyl-4-oxo-spiro[6,8-dihydro-5H-pyrazolo[4,3-c]azepine-7,4′-tetrahydropyran]-1-yl)butyl 4-(methylsulfamoyl)benzoate]	100 to 500 nM
CCc1nn(CCCCOC(=O)c2ccc(S(=O)(=O)N(C)C)cc2)c2c1C(=O)NCC1(CCOCC1)C2 [Example 375, 4-(3-ethyl-4-oxo-spiro[6,8-dihydro-5H-pyrazolo[4,3-c]azepine-7,4′-tetrahydropyran]-1-yl)butyl 4-(dimethylsulfamoyl)benzoate]	100 to 500 nM
CCc1nn(CCCCOC(=O)c2ccc(S(=O)(=O)C3CCCC3)cc2)c2c1C(=O)NCC1(CCOCC1)C2 [Example 376, 4-(3-ethyl-4-oxo-spiro[6,8-dihydro-5H-pyrazolo[4,3-c]azepine-7,4′-tetrahydropyran]-1-yl)butyl 4-cyclopentylsulfonylbenzoate]	100 to 500 nM
CCc1nn(CCCCOC(=O)c2ccc(S(=O)(=O)N3CCCC3)cc2)c2c1C(=O)NCC1(CCOCC1)C2 [Example 377, 4-(3-ethyl-4-oxo-spiro[6,8-dihydro-5H-pyrazolo[4,3-c]azepme-7,4′-tetrahydropyran]-1-yl)butyl 4-pyrrolidin-1-ylsulfonylbenzoate]	100 to 500 nM
CCc1nn(CCCCOC(=O)c2ccc(S(=O)(=O)N3CCOCC3)cc2)c2c1C(=O)NCC1(CCOCC1)C2 [Example 378, 4-(3-ethyl-4-oxo-spiro[6,8-dihydro-5H-pyrazolo[4,3-c]azepine-7,4′-telrahydropyran]-1-yl)butyl 4-morpholinosulfonylbenzoate]	100 to 500 nM
CCc1nn(CCCCOC(=O)c2ccc(C(=O)NC)cc2)c2c1C(=O)NCC1(CCOCC1)C2 [Example 379, 4-(3-ethyl-4-oxo-spiro[6,8-dihydro-5H-pyrazolo[4,3-c]azepine-7,4′-tetrahydropyran]-1-yl)butyl 4-(methylcarbamoyl)benzoate]	100 to 500 nM
CCc1nn(CCCCOC(=O)c2ccc(C(=O)N(C)C)cc2)c2c1C(=O)NCC1(CCOCC1)C2 [Example 380, 4-(3-ethyl-4-oxo-spiro[6,8-dihydro-5H-pyrazolo[4,3-c]azepine-7,4′-tetrahydropyran]-1-yl)butyl 4-(dimethylcarbamoyl)benzoate]	100 to 500 nM
CCc1nn(CCCCOC(=O)c2ccc(C(=O)N3CCOCC3)cc2)c2c1C(=O)NCC1(CCOCC1)C2 [Example 381, 4-(3-ethyl-4-oxo-spiro[6,8-dihydro-5H-pyrazolo[4,3-c]azepine-7,4′-tetrahydropyran]-1-yl)butyl 4-(morpholine-4-carbonyl)benzoate]	100 to 500 nM
